Assays:
[1] = system: human peripheral blood lymphocytes (sheep red blood cells as antigen); assay: Antigen-specific adjuvanticity: direct anti-SRBC plaque forming cells, human system; type: cell-based; conditions: for Peak Direct anti-SRBC PFC/Culture: Table 7, second group
[2] = system: anti-TNP-BSA antibody titers in CBA/CaJ mice; assay: In vivo anti-TNP-BSA antibody response (ELISA); design: species or system mouse; conditions: i.p., 0.2 ml at 5 mg/ml, 37 days
Description: FIG. 4 is a graph containing a number of plots that illustrate the in vivo kinetics of enhanced anti-trinitrophenyl bovine serum albumin (TNP-BSA) antibody responses elicited by contacting leukocytes in vivo with a composition containing 7-allyl-8-mercaptoguanosine (7a8MGuo). Here, the guanosine derivative (0.2 ml of 7a8MGuo at 5 mg/ml) was in a vehicle of 100 percent sesame oil (solid line) or 2 percent sesame oil in saline (dotted line) when introduced into the animal.
Three groups of CBA/CaJ mice were utilized. Each group was immunized with the TNP-BSA conjugate. […]
Antibody titers to TNP-BSA were determined over a period of 37 days using standard enzyme-linked immunosorbent assay (ELISA) procedures with TNP-BSA as antigen. […]
CBA/CaJ mice were immunized intraperitonally (i.p.) using a conjugate (TNP-BSA) prepared by the reaction of 2,4,6-trinitrobenzene sulfonic acid (TNBS) and bovine serum albumin (BSA) in a 0.28 molar cacodylate buffer, at pH 6.9. […] Anti-TNP-BSA antibody secretion from each group was thereafter monitored over a period of 37 days by standard enzyme-linked immunosorbant assay (ELISA) techniques using TNP-BSA as antigen.
Injections. […] Anti-TNP-BSA antibody titers were determined using standard techniques.

C=CCn1c(=S)n([C@@H]2O[C@H](CO)[C@@H](O)[C@H]2O)c2nc(N)[nH]c(=O)c21 [7a8MGuo, 7-(2-Propenyl)-8-thioxoguanosine]
Peak Direct anti-SRBC PFC/Culture ([1]; person a): 673 PFC/Culture | Peak Direct anti-SRBC PFC/Culture ([1]; person b): 6475 PFC/Culture | Peak Direct anti-SRBC PFC/Culture ([1]; person c): 3058 PFC/Culture | Average 1 Log Plaque Values ([1]; Table 9, human, * = single study): 45,630 ± 28,808 per micromole | anti-TNP-BSA antibody titer, ratio to control ([2]; 2 percent sesame oil in saline vehicle): about 4 times | anti-TNP-BSA antibody titer, ratio to control ([2]; 100 percent sesame oil vehicle): about 5 times

Source: US5011828A, “Immunostimulating guanine derivatives, compositions and methods” (priority 1988, dated 1991)
